Laboratory results published in publication PMC11133429, “Regiodivergent biosynthesis of bridged bicyclononanes” (Nature Communications, 2024).

How the values were obtained:
[1] = test system: T1, HsCPTb; assay: HPLC prenyltransferase assay, yeast microsomes; assay type: biochemical, Hypericum sampsonii; conditions: optimum conditions, Mg2+, pH optimum 10
T1 construct: cDNA in pESC-URA (GAL1), S. cerevisiae INVSc1 microsomal fraction; no tag mentioned

[2] = test system: T2, HsCPTa; assay: HPLC prenyltransferase assay, yeast microsomes; assay type: biochemical, Hypericum sampsonii; conditions: optimum conditions, Mg2+, pH optimum 7
T2 construct: cDNA in pESC-URA (GAL1), S. cerevisiae INVSc1 microsomal fraction; no tag mentioned

Km ([1]; DMAPP saturation)	Km ([2]; DMAPP saturation)	Km ([1]; prenyl donor, acceptor grandone (only one accepted))	Km ([2]; prenyl donor, acceptor not given)	Compound
40.4 ± 5.06 µM	62 ± 10.1 µM			CC(C)=CCC1=C(O)C(CC=C(C)C)(CC=C(C)C)C(=O)C(C(=O)c2ccccc2)=C1O [compound 1, grandone]
		298 ± 29.5 µM	65.4 ± 6.63 µM	CC(C)=CCOP(=O)(O)OP(=O)(O)O [DMAPP]
	114 ± 20 µM			CC(C)=CCC/C(C)=C/C[C@]1(CC=C(C)C)C(=O)C(CC=C(C)C)=C(O)/C(=C(\O)c2ccccc2)C1=O [compound 2, kolanone]
	106 ± 9.86 µM			CC(C)=CCC1=C(O)C(CC=C(C)C)(CC=C(C)C)C(=O)C(C(=O)C(C)C)=C1O [colupulone]
